Data as given in patent US7399638B2, “Prediction method for lipidosis” (Takeda Pharmaceutical Company Limited, priority 2003, dated 2008).
Where two headings read alike, the source gives them in different places. Marks after values point to notes of the source that are not given here.

Legend:
[1] = system: Crj: CD(SD)IGS rats; assay: Urinary PAG/hippuric acid ratio by 1H NMR in rats; settings: rat urine, 3 days, mean n = 3-4
[2] = system: Crj: CD(SD)IGS rats; settings: rat, in vivo
Method: (§1) The following 10 kinds of commercially available drugs were examined as the test compounds for a potential of inducing PLsis by histopathological examination and peripheral blood lymphocyte testing.
(§2) The following experiments were performed using the prematurely autopsied animals.
(§3) The high-dose dosing suspension was diluted about 3 fold and 10 fold with dispersant/solvent to prepare intermediate- and low-dose dosing suspensions. […] [For LD50, the Summary Basis of Approval (FDA) for each drug was referenced to.]
(§4) The animals were examined for mortality, general conditions, body weight, food consumption and the like using PM4800 (Mettler) and EB3200D (Shimadzu Corporation).

[3] = system: Crj: CD(SD)IGS rats; settings: male, rat, in vivo, 3 days
Method: as §1, §2, §3, §4
Hematological examination was performed for parameters such as RBC count, hematocrit, hemoglobin concentration, mean corpuscular hemoglobin (MCH), mean corpuscular hemoglobin concentration (MCHC), mean corpuscular volume (MCV), platelet count, WBC count, reticulocyte count, differential WBC, and vacuolated lymphocyte ratio (for PLsis-inducing compounds only) using ADVIA120 (Bayer Medical Ltd.) and E-4000 (Sysmex Corporation).

[4] = system: male cynomolgus monkeys; assay: Urinary PAGN/hippuric acid ratio by 1H NMR in monkeys; format: in vivo, cynomolgus monkey; settings: for Urinary PAGN/hippuric acid ratio: male cynomolgus monkey, 60 mg/kg/day by gavage for 7 days
Method: (§5) Subsequently, the animals were allocated to four groups (5 animals in total) comprising 2 animals in the control group and 1 male in each treatment group, respectively.
(§6) The high-dose dosing suspension was diluted with the dispersant/solvent to prepare a low-dose dosing suspension.
Pooled urine was collected from the monkeys in the Example above under fasting for about 6 hours in the pre-dosing period (Pre), on the first day of administration (Day 0), and on days 2 and 6 of treatment period (Days 2 and 6).
^1H NMR was performed as described below. Reagents were used without purification. Heavy water (D2O) was purchased from ISOTEC. […] INC (USA).
A phosphate buffer solution was prepared as described below.
Operating conditions were set as shown below.

[5] = system: male cynomolgus monkeys; settings: cynomolgus monkey, in vivo, 60 mg/kg
Method: Amiodarone and perhexiline were purchased from SIGMA Company.
as §5, §6
After completion of the administration, livers, kidneys, hearts, spleens, lungs, mesenteric lymph nodes, eyeballs, testes and brains were collected from all animals, and examined for histopathological changes by conventional method of optical microscopy. Additionally, blood samples were collected in the pre-dosing period, on the first day of administration, and on days 2 and 6 of treatment period, blood smear specimens were prepared, and vacuolated lymphocyte ratios were determined.

CNCCC(Oc1ccc(C(F)(F)F)cc1)c1ccccc1 (stereo not shown) [Fluoxetine, fluoxetine]
PAG + hippuric acid/creatinine ([1]; 30 mg/kg/day by gavage): 1.13
PAG/PAG + hippuric acid ([1]; 30 mg/kg/day by gavage): 15.60* %
PAG/creatinine (first term of PAG + hippuric acid) ([1]; 30 mg/kg/day by gavage): 0.17
PAG/hippuric acid ([1]; 30 mg/kg/day by gavage): 18.58* %
hippuric acid/creatinine (second term of PAG + hippuric acid) ([1]; 30 mg/kg/day by gavage): 0.96
PAG + hippuric acid/creatinine ([1]; 100 mg/kg/day by gavage): 1.06
PAG/PAG + hippuric acid ([1]; 100 mg/kg/day by gavage): 25.90* %
PAG/creatinine (first term of PAG + hippuric acid) ([1]; 100 mg/kg/day by gavage): 0.27
PAG/hippuric acid ([1]; 100 mg/kg/day by gavage): 36.86* %
hippuric acid/creatinine (second term of PAG + hippuric acid) ([1]; 100 mg/kg/day by gavage): 0.79
PAG + hippuric acid/creatinine ([1]; 300 mg/kg/day by gavage): 0.67*
PAG/PAG + hippuric acid ([1]; 300 mg/kg/day by gavage): 31.88* %
PAG/creatinine (first term of PAG + hippuric acid) ([1]; 300 mg/kg/day by gavage): 0.20
PAG/hippuric acid ([1]; 300 mg/kg/day by gavage): 56.32* %
hippuric acid/creatinine (second term of PAG + hippuric acid) ([1]; 300 mg/kg/day by gavage): 0.47
Histopathological changes (PLsis): Liver ([2]; 30 mg/kg/day): +
Histopathological changes (PLsis): Lung ([2]; 30 mg/kg/day): +
Histopathological changes (PLsis): Lymph node ([2]; 30 mg/kg/day): +
Histopathological changes (PLsis): Others ([2]; 30 mg/kg/day): Brain
Histopathological changes (PLsis): Spleen ([2]; 30 mg/kg/day): −
Histopathological changes (PLsis): Liver ([2]; 100 mg/kg/day): +
Histopathological changes (PLsis): Lung ([2]; 100 mg/kg/day): +
Histopathological changes (PLsis): Lymph node ([2]; 100 mg/kg/day): +
Histopathological changes (PLsis): Others ([2]; 100 mg/kg/day): Brain
Histopathological changes (PLsis): Spleen ([2]; 100 mg/kg/day): −
Histopathological changes (PLsis): Liver ([2]; 300 mg/kg/day): +
Histopathological changes (PLsis): Lung ([2]; 300 mg/kg/day): +
Histopathological changes (PLsis): Lymph node ([2]; 300 mg/kg/day): −
Histopathological changes (PLsis): Others ([2]; 300 mg/kg/day): −
Histopathological changes (PLsis): Spleen ([2]; 300 mg/kg/day): −
Mean vacuolated lymphocyte ratio ([3]; 30 mg/kg/day): 7%
Mean vacuolated lymphocyte ratio ([3]; 100 mg/kg/day): 28%
Mean vacuolated lymphocyte ratio ([3]; 300 mg/kg/day): 31%

C1CCC(C(CC2CCCCN2)C2CCCCC2)CC1 (stereo not shown) [Perhexiline, perhexiline]
PAG + hippuric acid/creatinine ([1]; 60 mg/kg/day by gavage): 1.47
PAG/PAG + hippuric acid ([1]; 60 mg/kg/day by gavage): 10.16%
PAG/creatinine (first term of PAG + hippuric acid) ([1]; 60 mg/kg/day by gavage): 0.15
PAG/hippuric acid ([1]; 60 mg/kg/day by gavage): 11.39%
hippuric acid/creatinine (second term of PAG + hippuric acid) ([1]; 60 mg/kg/day by gavage): 1.31
PAG + hippuric acid/creatinine ([1]; 200 mg/kg/day by gavage): 1.52
PAG/PAG + hippuric acid ([1]; 200 mg/kg/day by gavage): 15.59* %
PAG/creatinine (first term of PAG + hippuric acid) ([1]; 200 mg/kg/day by gavage): 0.24
PAG/hippuric acid ([1]; 200 mg/kg/day by gavage): 18.49%
hippuric acid/creatinine (second term of PAG + hippuric acid) ([1]; 200 mg/kg/day by gavage): 1.28
PAG + hippuric acid/creatinine ([1]; 600 mg/kg/day by gavage): 0.75*
PAG/PAG + hippuric acid ([1]; 600 mg/kg/day by gavage): 45.67* %
PAG/creatinine (first term of PAG + hippuric acid) ([1]; 600 mg/kg/day by gavage): 0.31
PAG/hippuric acid ([1]; 600 mg/kg/day by gavage): 146.97* %
hippuric acid/creatinine (second term of PAG + hippuric acid) ([1]; 600 mg/kg/day by gavage): 0.44
PAGN/hippuric acid ratio compared to the control group ([4]; cynomolgus monkey urine, 60 mg/kg, gavage 7 days): increased
Urinary PAGN/hippuric acid ratio ([4]; Day 0, 1 animal): 2.17
Urinary PAGN/hippuric acid ratio ([4]; Day 2, 1 animal): 1.43
Urinary PAGN/hippuric acid ratio ([4]; Day 6, 1 animal): ↑12.89
Urinary PAGN/hippuric acid ratio ([4]; Pre (pre-dosing period), 1 animal): 1.10
Histopathological changes (PLsis): Liver ([2]; 60 mg/kg/day): −
Histopathological changes (PLsis): Lung ([2]; 60 mg/kg/day): −
Histopathological changes (PLsis): Lymph node ([2]; 60 mg/kg/day): −
Histopathological changes (PLsis): Others ([2]; 60 mg/kg/day): −
Histopathological changes (PLsis): Spleen ([2]; 60 mg/kg/day): −
Histopathological changes (PLsis): Liver ([2]; 200 mg/kg/day): −
Histopathological changes (PLsis): Lung ([2]; 200 mg/kg/day): +
Histopathological changes (PLsis): Lymph node ([2]; 200 mg/kg/day): +
Histopathological changes (PLsis): Others ([2]; 200 mg/kg/day): −
Histopathological changes (PLsis): Spleen ([2]; 200 mg/kg/day): −
Histopathological changes (PLsis): Liver ([2]; 600 mg/kg/day): −
Histopathological changes (PLsis): Lung ([2]; 600 mg/kg/day): +
Histopathological changes (PLsis): Lymph node ([2]; 600 mg/kg/day): +
Histopathological changes (PLsis): Others ([2]; 600 mg/kg/day): −
Histopathological changes (PLsis): Spleen ([2]; 600 mg/kg/day): +
Mean vacuolated lymphocyte ratio ([3]; 60 mg/kg/day): 2%
Mean vacuolated lymphocyte ratio ([3]; 200 mg/kg/day): 4%
Mean vacuolated lymphocyte ratio ([3]; 600 mg/kg/day): 52%
histopathological changes in any target organ [5]: observed
vacuolated lymphocyte ratio [5]: increase
